{
  "source": "patent US20240238195A1",
  "about": "“METHODS AND COMPOSITIONS FOR INHIBITING A NOXIOUS INSULT” (priority 2018, published 2024)",
  "key": {"rats [1]": {"system": "rats", "details": "cited from earlier work"}, "mice": {"system": "mice", "details": "cited from earlier work"}, "rats [2]": {"system": "rats", "details": "191 mg zinc/kg/day as zinc acetate in drinking water for 3 months; cited from earlier work"}, "humans": {"system": "humans", "details": "cited from earlier work"}, "sheep kidneys": {"system": "sheep kidneys", "assay": "Renal ischaemia-reperfusion injury in sheep (unilateral nephrectomy, 60 min renal ischaemia)", "assay_type": "in vivo", "details": "for ischaemic burden (area under curve, serum creatinine and serum urea): 0.5 mg/kg dosed at 24 hours and 4 hours pre-ischaemia, compared to controls and single 24 hr or 4 hr dosing; for inhibition of ischaemia-reperfusion injury, as measured by serum creatinine and urea levels / adverse effects of ischaemia-reperfusion in sheep kidneys (trend towards higher serum creatinine and urea levels): compared to controls", "description": "(§1) Following the 4 hour injection, day 0 blood samples were taken.\nControls (n=4) received a unilateral nephrectomy and were administered saline at 24 hours and 4 hours prior to surgery.\nAnother group of sheep (n=1) received the Flavonoid based antioxidant (3′,4′ dihydroxyflavonol) at 6.6 mg/kg of body weight 1 hours prior to surgery.\nSheep were anaesthetised prior to surgery with intravenous sodium thiopentone (15 mg/kg) for endotracheal intubation (cuffed tube size 10). Maintenance of anaesthesia was carried out by means of oxygen/air/isoflurane (1.5-2.0%). Fractional inspired oxygen was altered to maintain PaO2 at approximately 100 mmHg, and ventilation was controlled to maintain PaCO2 at approximately 40 mmHg.\nFollowing general anaesthesia, the right kidney was removed. A flow probe (4 mm) was implanted into the left kidney and the renal hilum (arteries and veins) supplying blood to the kidney were clamped using a vascular clamp for 60 minutes. […] General anaesthesia was then reversed and the sheep were allowed to recover. Renal blood flow was measured, blood samples were taken daily from the sheep over a 1-week period and the level of urea and creatinine was determined. Blood samples were collected into lithium heparin tubes (Microtainer, Becton-Dickinson). Blood samples were centrifuged and aliquots stored at −20° C. till analysis for creatinine and urea by the Clinical Trials Department, Austin Pathology, Heidelberg, Australia. Creatinine and urea in the blood serum samples were measured on a fully automated Roche Cobas 8000 c702 analyser. The kinetic colorimetric assay for creatinine determination is based on the Jaffé method. The kinetic colorimetric assay for urea is based on hydrolyzation of Urea to ammonium catalysed by urease followed by reaction of ammonium with 2-oxoglutarate in the presence of glutamate dehydrogenase and the coenzyme NADH. The rate of decrease in the NADH concentration is directly proportional to the urea concentration in the specimen and is measured photometrically.\nAs 0.5 mg/kg had been established as an effective dose to inhibit renal ischemia-reperfusion injury, the dosing experiments above were repeated to investigate the effect of multiple dosing. Sheep were subjected to uninephrectomy and 60 min of renal ischaemia followed by reperfusion. Serum creatinine and serum urea levels were measured before Zn pre-treatment (baseline), before ischaemia (Day 0) and for 7 days after reperfusion. […] Data are expressed as mean±SEM values (n=4, except 24 hr only group, n=1)."}, "ferrets": {"system": "ferrets", "details": "390 mg zinc/kg of body weight per day as zinc oxide in the diet for 3-13 days; cited from earlier work"}, "HIF-1α [3]": {"system": "HIF-1α", "assay": "HIF-1α protein expression in HK-2 cells (Western blot)", "assay_type": "cell-based, human", "details": "50 μM ZnCl2, Western blot, at 4 hours following exposure, vs controls", "source_text": "(§2) Zn stimulated HIF1α in HK-2 cells."}, "HIF-1α [4]": {"system": "HIF-1α", "assay": "HIF-1α protein expression in ZnCl2-perfused human kidney tissue (Western Blot)", "description": "The blood supply to the excised tissue was provided by the renal artery into which the ZnCl2 solution was administered. In an initial study a 25% increase in HIF-1α expression in normal human kidney perfused with Zn compared to saline perfused tissue was observed."}, "HIF-2α [5]": {"system": "HIF-2α", "assay": "HIF-2α protein expression in HK-2 cells (Western blot)", "assay_type": "cell-based, human", "details": "50 μM ZnCl2, Western blot, 4 hours", "source_text": "as §2"}, "[6]": {"system": "sheep left ventricle myocardium", "assay": "Myocardial ischaemia-reperfusion in sheep (Evan's blue / TTC staining)", "assay_type": "in vivo"}, "HIF-1α [7]": {"system": "HIF-1α", "assay": "HIF-1α protein expression in ACHN cells (Western blot)", "assay_type": "cell-based, human", "details": "50 μM ZnCl2, Western blot, at 4 hours following exposure, vs controls", "source_text": "(§3) Zn stimulated HIF1α in ACHN cells."}, "HIF-3α [8]": {"system": "HIF-3α", "assay": "HIF-3α protein expression in ACHN cells (Western blot)", "assay_type": "cell-based, human", "details": "50 μM ZnCl2, Western blot", "source_text": "as §3"}, "[9]": {"assay": "Tolerability of intravenous ZnCl2 in sheep", "assay_type": "in vivo", "details": "0.1 to 2 mg/kg of body weight i.v. at 24 hours and 4 hours prior to surgery; preliminary results", "description": "as §1"}, "pAKT [10]": {"system": "pAKT", "assay": "Phosphorylation of AKT in HK-2 cells (Western blot)", "assay_type": "cell-based, human", "details": "ZnCl2 for 4 hours", "source_text": "as §2"}, "HIF-2α [11]": {"system": "HIF-2α", "assay": "HIF-2α protein expression in ACHN cells (Western blot)", "assay_type": "cell-based, human", "details": "50 μM ZnCl2, Western blot, 4 hours", "source_text": "as §3"}, "pAKT [12]": {"system": "pAKT", "assay": "Phosphorylation of AKT in ACHN cells (Western blot)", "assay_type": "cell-based, human", "details": "ZnCl2 for 4 hours", "source_text": "as §3"}, "HIF-3α [13]": {"system": "HIF-3α", "assay": "HIF-3α protein expression in HK-2 cells (Western blot)", "assay_type": "cell-based, human", "details": "50 μM ZnCl2, Western blot", "source_text": "as §2"}, "[14]": {"details": "0.1 mg/kg of body weight i.v. at 24 hours and 4 hours prior to 60 min ischaemia"}, "[15]": {"details": "0.5 mg/kg of body weight i.v. at 24 hours and 4 hours prior to 60 min ischaemia"}},
  "note": "Entries after “also recorded” stand apart in the source; their conditions may differ.",
  "data": [
    {"compound": "CC(=O)[O-].CC(=O)[O-].[Zn+2]", "note": "[zinc acetate]", "values": [
      {"measurement": "relative lethality (LD50 ranking)", "setting": "rats [1]", "result": "most lethal compound tested"},
      {"measurement": "relative lethality (LD50 ranking)", "setting": "mice", "result": "most lethal compound"},
      {"measurement": "mortality", "setting": "rats [2]", "result": "Mortality has also been observed"}
    ]},
    {"compound": "zinc sulfate", "values": [
      {"measurement": "outcome of zinc overdose", "setting": "humans; oral ingestion of zinc sulfate in large amounts (≥30,000 mg)", "result": "can result in death"}
    ]},
    {"compound": "zinc gluconate", "values": [
      {"measurement": "toxic effects", "setting": "humans; about 2,000-4,000 mg/day of zinc gluconate", "result": "anemia (consistent with zinc-induced copper deficiency), severe nephrosis, nausea, vomiting, dehydration, electrolyte imbalances, dizziness, lethargy and incoordination, epigastric pain and abdominal pain"}
    ]},
    {"compound": "O=c1c(O)c(-c2ccc(O)c(O)c2)oc2ccccc12", "note": "[antioxidant, 3′,4′ dihydroxyflavonol, reference compound]", "values": [
      {"measurement": "decrease of ischaemic burden (AUC values for serum creatinine and serum urea)", "setting": "sheep kidneys; antioxidant 6.6 mg/kg of body weight 1 hours prior to surgery (n=1)", "result": 50, "unit": "%"}
    ]},
    {"compound": "[O]=[Zn]", "note": "[zinc oxide]", "values": [
      {"measurement": "lethality (ferrets dead of ferrets dosed)", "setting": "ferrets", "result": "3 of 3"}
    ]},
    {"compound": "[Cl-].[Cl-].[Zn+2]", "note": "[ZnCl2, zinc chloride]", "values": [
      {"measurement": "HIF-1α protein expression", "setting": "HIF-1α [3]", "result": "increase"},
      {"measurement": "HIF-1α protein expression", "setting": "HIF-1α [3]; listed as Zinc chloride", "result": "enhanced"},
      {"measurement": "HIF-1α protein expression", "setting": "HIF-1α [3]; listed as Zn", "result": "stimulated"},
      {"measurement": "HIF-1α protein expression", "setting": "HIF-1α [3]; listed as zinc", "result": "stimulates"},
      {"measurement": "increase in HIF-1α expression", "setting": "HIF-1α [4]; 50 μM ZnCl2 perfused via segmental renal artery, compared to saline perfused tissue, initial study", "result": 25, "unit": "%"},
      {"measurement": "HIF-1α protein expression in human kidney tissue", "setting": "HIF-1α [4]; zinc chloride preconditioning (50 μM perfusion), Western Blot", "result": "enhanced"},
      {"measurement": "HIF-2α protein expression", "setting": "HIF-2α [5]", "result": "increase"},
      {"measurement": "HIF-2α protein expression", "setting": "HIF-2α [5]; listed as zinc", "result": "stimulated"},
      {"measurement": "infarct in the area of myocardium at risk", "setting": "[6]; dual doses of 0.5 mg/kg ZnCl2 at 24 hours and 4 hours prior to 1 hour ischemia and 3 hour reperfusion", "result": "no histological signs of an infarct"},
      {"measurement": "white (infarcted) areas after TTC staining of left ventricle rings", "setting": "[6]; dual doses of 0.5 mg/kg ZnCl2 at 24 hours and 4 hours prior to myocardial ischaemia, compared to untreated sheep, 0.5 mg/kg", "result": "very little white staining; also recorded: Absence of white areas"},
      {"measurement": "HIF-1α protein expression", "setting": "HIF-1α [7]", "result": "increase"},
      {"measurement": "HIF-1α protein expression", "setting": "HIF-1α [7]; listed as Zinc chloride", "result": "enhanced"},
      {"measurement": "HIF-1α protein expression", "setting": "HIF-1α [7]; listed as Zn", "result": "stimulated"},
      {"measurement": "HIF-1α protein expression", "setting": "HIF-1α [7]; listed as zinc", "result": "stimulates"},
      {"measurement": "HIF-3α protein expression", "setting": "HIF-3α [8]", "result": "not"},
      {"measurement": "tolerability / adverse effects", "setting": "[9]", "result": "without any adverse effects"},
      {"measurement": "phosphorylation of AKT", "setting": "pAKT [10]", "result": "stimulated phosphorylation"},
      {"measurement": "serum creatinine levels when compared to controls", "setting": "sheep kidneys; [14]", "result": "marked reduction"},
      {"measurement": "serum urea levels when compared to controls", "setting": "sheep kidneys; [14]", "result": "marked reduction"},
      {"measurement": "ischaemic burden (area under curve, serum creatinine and serum urea)", "setting": "sheep kidneys", "result": "significantly (p<0.05) reduced"},
      {"measurement": "ischaemic burden (area under curve, serum creatinine and serum urea)", "setting": "sheep kidneys; listed as zinc", "result": "reduced significantly"},
      {"measurement": "serum creatinine levels when compared to controls", "setting": "sheep kidneys; [15]", "result": "marked reduction"},
      {"measurement": "serum urea levels when compared to controls", "setting": "sheep kidneys; [15]", "result": "marked reduction"},
      {"measurement": "reduction of ischaemic burden (AUC values for serum creatinine and serum urea)", "setting": "sheep kidneys; 0.5 mg/kg zinc, compared to control animals", "result": "~70", "unit": "%"},
      {"measurement": "inhibition of ischaemia-reperfusion injury, as measured by serum creatinine and urea levels", "setting": "sheep kidneys; 1.0 mg/kg of body weight", "result": "failed to inhibit"},
      {"measurement": "inhibition of ischaemia-reperfusion injury, as measured by serum creatinine and urea levels", "setting": "sheep kidneys; 2.5 mg/kg of body weight", "result": "failed to inhibit"},
      {"measurement": "adverse effects of ischaemia-reperfusion in sheep kidneys (trend towards higher serum creatinine and urea levels)", "setting": "sheep kidneys; 2.5 mg/kg of body weight, listed as ZnCl", "result": "appeared to worsen"},
      {"measurement": "adverse effects of ischaemia-reperfusion in sheep kidneys (trend towards higher serum creatinine and urea levels)", "setting": "sheep kidneys; 2.5 mg/kg of body weight, listed as zinc", "result": "worsened renal function"},
      {"measurement": "inhibition of ischaemia-reperfusion injury, as measured by serum creatinine and urea levels", "setting": "sheep kidneys; 10.0 mg/kg of body weight", "result": "failed to inhibit"},
      {"measurement": "adverse effects of ischaemia-reperfusion in sheep kidneys (trend towards higher serum creatinine and urea levels)", "setting": "sheep kidneys; 10.0 mg/kg of body weight, listed as ZnCl", "result": "appeared to worsen"},
      {"measurement": "adverse effects of ischaemia-reperfusion in sheep kidneys (trend towards higher serum creatinine and urea levels)", "setting": "sheep kidneys; 10.0 mg/kg of body weight, listed as zinc", "result": "worsened renal function"},
      {"measurement": "renal function following ischaemia-reperfusion injury, as determined by serum creatinine and serum urea levels", "setting": "sheep kidneys; greater than or equal to 1 mg/kg of body weight, intravascular", "result": "did not improve renal function"},
      {"measurement": "creatinine rise over time", "setting": "sheep kidneys; two doses of 0.5 mg/kg at 24 and 4 hr prior to ischaemia, compared to single dose at either 24 hr or 4 hr, p<0.05, 0.5 mg/kg", "result": "significantly (p<0.05) reduced"},
      {"measurement": "HIF-2α protein expression", "setting": "HIF-2α [11]", "result": "increase"},
      {"measurement": "HIF-2α protein expression", "setting": "HIF-2α [11]; listed as zinc", "result": "stimulated"},
      {"measurement": "phosphorylation of AKT", "setting": "pAKT [12]", "result": "stimulated phosphorylation"},
      {"measurement": "HIF-3α protein expression", "setting": "HIF-3α [13]", "result": "not"}
    ]}
  ]
}
